Data: paper PMC12349723, “Computationally accelerated identification of P-glycoprotein inhibitors” (PLOS One, 2025)
Entries after “also recorded” stand apart in the source; their conditions may differ.

Tests used:
P-gp [1] = biological target: T1, P-gp (Homo sapiens, UniProt P08183); assay: Daunorubicin accumulation (fluorescence) assay in DU145-TXR cells; assay type: cell-based; settings: for Significance (DAU + compound vs DAU alone): Student's T test of the mean; for Effect on DAU fluorescence / intracellular DAU retention: DU145-TXR, 10 µM compound + 10 µM DAU, 2 h
T1 construct: The MDR, P-gp overexpressing DU145-TXR cells were maintained under positive selection pressure; endogenous in cells; host or cells: DU145-TXR (paclitaxel-resistant sub-line of DU145 human prostate cancer cells)
T1 sequence (P08183 whole entry): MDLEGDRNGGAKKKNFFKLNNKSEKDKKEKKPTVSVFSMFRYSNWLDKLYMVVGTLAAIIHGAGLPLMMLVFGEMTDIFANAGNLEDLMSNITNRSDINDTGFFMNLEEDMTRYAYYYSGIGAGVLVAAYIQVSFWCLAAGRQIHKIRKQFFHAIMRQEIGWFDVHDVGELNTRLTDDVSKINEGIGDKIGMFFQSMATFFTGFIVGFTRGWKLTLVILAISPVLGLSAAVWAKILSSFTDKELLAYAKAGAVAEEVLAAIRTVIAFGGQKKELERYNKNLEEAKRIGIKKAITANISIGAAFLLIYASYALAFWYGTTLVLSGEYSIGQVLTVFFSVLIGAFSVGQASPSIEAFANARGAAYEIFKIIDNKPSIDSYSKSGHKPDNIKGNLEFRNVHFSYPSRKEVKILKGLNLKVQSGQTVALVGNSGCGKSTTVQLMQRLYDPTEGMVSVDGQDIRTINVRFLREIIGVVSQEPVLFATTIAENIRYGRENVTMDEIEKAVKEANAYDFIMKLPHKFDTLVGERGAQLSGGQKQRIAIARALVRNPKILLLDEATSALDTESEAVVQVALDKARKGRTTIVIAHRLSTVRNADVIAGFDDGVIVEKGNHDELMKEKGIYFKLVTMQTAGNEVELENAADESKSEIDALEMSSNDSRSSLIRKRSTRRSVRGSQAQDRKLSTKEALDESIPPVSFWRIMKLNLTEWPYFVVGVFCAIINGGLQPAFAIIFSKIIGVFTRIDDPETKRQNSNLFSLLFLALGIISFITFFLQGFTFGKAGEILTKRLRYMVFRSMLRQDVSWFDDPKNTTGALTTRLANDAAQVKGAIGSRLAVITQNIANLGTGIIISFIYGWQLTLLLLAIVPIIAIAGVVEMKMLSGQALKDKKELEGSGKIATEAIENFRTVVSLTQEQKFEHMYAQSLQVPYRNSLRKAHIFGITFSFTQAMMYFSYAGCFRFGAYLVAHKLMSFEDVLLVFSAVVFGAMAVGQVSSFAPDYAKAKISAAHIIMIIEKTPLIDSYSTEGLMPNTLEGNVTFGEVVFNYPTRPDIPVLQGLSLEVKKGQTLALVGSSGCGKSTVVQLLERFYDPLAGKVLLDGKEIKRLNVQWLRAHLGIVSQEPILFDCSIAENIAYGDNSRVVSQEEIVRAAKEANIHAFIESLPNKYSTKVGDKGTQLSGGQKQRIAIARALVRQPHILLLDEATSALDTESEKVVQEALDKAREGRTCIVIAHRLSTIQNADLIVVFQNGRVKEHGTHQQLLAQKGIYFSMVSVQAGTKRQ
Method: These assays are based upon those reported in [9]. DU145-TXR cells were seeded in 96 well plates in complete RPMI medium at 15,000 cells per well. Cells were allowed to grow for 48 hours in a humidified incubator at 37 °C and 5% CO2. After 48 hours, media was replaced with fresh complete RPMI medium. Cells were treated with 10 µM of experimental compound with or without 10 µM daunorubicin (DAU). After a 2-hour incubation at 37 °C and 5% CO2 in a humidified incubator, media was removed with a vacuum aspirator, and cells were washed twice with ice-cold phosphate buffered saline (PBS) solution. Cells were lysed in PBS containing 0.5% SDS and 0.5% Triton X-100 and shaken on an Orbital Shaker for 10 min at 500 rpm. […] Data are the mean ± one standard deviation from three independent experiments, 3 samples per experiment. Statistical significance was determined with a Student’s T test in GraphPad prism.
Δ DAU Fluorescence= Fluorescence of (Compound+DAU) treated cells/Fluorescence of DAU treated cells
These assays used the P-gp highly overexpressing DU145-TXR cell line. In this assay, the intrinsic fluorescence of DAU was used to quantify its relative concentration in the cell. An increase in fluorescence correlates with an increase in the intracellular accumulation of DAU. […] Cells were treated with 10 µM of experimental compound with or without 10 µM DAU. After a 2-hour incubation, cells were washed and lysed, and the total fluorescence of DAU in each well was quantified.
Fig 5 Change in fluorescence of DAU in the presence of experimental compounds. Fold change in fluorescence of the P-gp substrate Daunorubicin (DAU) in the presence or absence of experimental compounds or known P-gp modulators. Cells were treated with 10 µM compound in the presence or absence of 10 µM DAU. After washing and lysing the cells, the intracellular DAU fluorescence was measured and expressed as a fold change relative to the fluorescence of DU145-TXR cells treated with DAU alone. […] Three samples per trial, three independent trials. Significance was determined using a Student’s T test of the mean by comparing fluorescence of DAU and compound to that of DAU alone; P > 0.05 = N.S., P < 0.05 = *, P < 0.01 = **, P < 0.001 = ***, P < 0.0001 = ****. Data also shown in S4 Fig.

P-gp [2] = tested on: P-gp; parameters: method as in earlier work; settings: ref [66-68]; cited from earlier work

Row | SMILES | Significance (DAU + compound vs DAU alone) (P-gp [1]) | Effect on DAU fluorescence / intracellular DAU retention (P-gp [1]) | P-gp Substrate? (known transport substrate of P-gp) (P-gp [2])
1 | Cn1cnnc1SCc1c(C(=O)O)nnn1-c1nonc1N [Compound 59, Cn1cnnc1SCc1c(nnn1-c1nonc1N)C(O)=O] | N.S. (P > 0.05 = N.S.) | – | –
2 | O=C(c1nc(-c2ccc3cc[nH]c3c2)no1)N1CCN(c2nsc3ccccc23)CC1 [Compound 70, O=C(N1CCN(CC1)c1nsc2ccccc12)c1nc(no1)-c1ccc2cc[nH]c2c1] | * (P < 0.05 = *) | – | –
3 | Cc1onc(-c2ccccc2)c1-c1nnc(Cn2cnc3c(oc4ccccc43)c2=O)o1 [Compound 78, Cc1onc(c1-c1nnc(Cn2cnc3c4ccccc4oc3c2=O)o1)-c1ccccc1] | * (P < 0.05 = *) | significant decrease in fluorescence; also recorded: did not cause an increase in intracellular DAU retention | –
4 | O=S(=O)(CCSc1nnc(-c2ccccc2)c2ccccc12)c1ccccc1 [Compound 96, O=S(=O)(CCSc1nnc(-c2ccccc2)c2ccccc12)c1ccccc1] | **** (P < 0.0001 = ****) | – | –
5 | O=S(=O)(Cc1nc2ccccc2n1CC(O)c1ccc(Cl)cc1)c1ccccc1 (stereo not drawn) [Compound 97, OC(Cn1c(CS(=O)(=O)c2ccccc2)nc2ccccc12)c1ccc(Cl)cc1] | **** (P < 0.0001 = ****) | – | –
6 | COc1cccc(N2CCN(c3ccc4nnc(CCC(=O)Nc5ccc(F)c(F)c5)n4n3)CC2)c1 [Compound 101, COc1cccc(c1)N1CCN(CC1)c1ccc2nnc(CCC(=O)Nc3ccc(F)c(F)c3)n2n1] | **** (P < 0.0001 = ****) | – | –
7 | Cc1ccc(-c2noc(-c3cn(Cc4ccc(NS(=O)(=O)c5ccccc5F)cc4)cn3)n2)cc1 [Compound 103, Cc1ccc(cc1)-c1noc(n1)-c1cn(Cc2ccc(NS(=O)(=O)c3ccccc3F)cc2)cn1] | ** (P < 0.01 = **) | – | –
8 | Cc1onc(-c2ccccc2)c1-c1nnc(Cn2cnc3ccccc3c2=O)o1 [Compound 111, Cc1onc(c1-c1nnc(Cn2cnc3ccccc3c2=O)o1)-c1ccccc1] | N.S. (P > 0.05 = N.S.) | did not cause an increase in intracellular DAU retention | –
9 | COc1cc2c(cc1OC)CN(CCc1ccc(NC(=O)c3cc(OC)c(OC)cc3NC(=O)c3cnc4ccccc4c3)cc1)CC2 [Tariquidar, reference compound] | **** (P < 0.0001 = ****) | – | Yes
